Reference: patent publication US20060073159A1, “Human anti-cancer immunotherapy” (The Trustees of the University of Pennsylvania, priority 2004, published 2006)

B1: Hox-TLD (peptide)
peptide: TLDTHTLSL
B2: Mei-AIY (peptide)
peptide: AIYGHPLFPL

Columns and labels:
[1] = system: HoxA9+ and Meis1+ leukemia cell lines; experiment: lysis of leukemia cell lines by peptide-specific CTL; assay type: cell-based, human; settings: antigen-dependent, MHC-restricted; HLA-A2-negative or antigen-negative leukemia cells not killed
Description: To determine whether these peptides could trigger the expansion of specific CTL, CD8+ T cells from normal HLA-A2+ donors were stimulated in vitro with autologous peptide-loaded antigen presenting cells, using a system previously described (Vonderheide et al., 1999, Immunity 10:673-679). […] Moreover, both Hox-TLD and Mei-AIY specific CTL were able to lyse HoxA9+ and Meis1+leukemia cell lines in an antigen-dependent, MHC-restricted fashion.

HLA-A2 = target: T1, HLA-A2 (Homo sapiens, UniProt P04439, D140Y/D185E/D98H/E176V/E277Q/G131W/G231S/I119V/I121R/I166T/I218V/L300P/L318F/N151K/N90K/P208A/P217A/Q86G/Q94H/R138H/R169H/T345S); experiment: flow-based T2 binding assay (HLA-A2 binding and MHC complex stability); settings: 6 epitopes from each gene product compared, T2 cells
T1 construct: T2 cells are prepared to a concentration of 1×10^6 cells/mL; endogenous in cells; host or cells: T2 cells
Method: T2 cells are harvested as described elsewhere herin. T2 cells are wash three times in serum free media. T2 cells are prepared to a concentration of 1×10^6 cells/mL. 1 mL of T2 cells is added to each well of 24 well plate. B2M (1 mg/mL) is added to the mixture to give a final concentration of 2.5 ug/mL. Appropriate control or peptide at 50 ug/mL is added to each wll. The cells are incubated in an incubator at 37° C. For a positive control peptide, RT-POL vs flu or tax can be used.
Next day, cells are harvested and washed three times in serum-free RPMI. The supernatant is removed and the cells are resuspend in 800 ul of serum free IMDM. The cells are plated (400 ul of cells) to one well of a 48 well plate. […]
The fluorescence index (FI) can be calculated from the mean fluorescence intensity as follows: FI=(MFIpeptide/MFIno peptide)−1 The complex's half-life can be calculated using SigmaPlot regression analysis and the following formula: y=yo+a*e^bx t1/2=1/b*ln((y−yo)/a) with yo=Fimax/2 Conjugation of Monomers to Generate Tetramers
HLA-A2-restricted epitopes derived from HoxA9 and Meis I were predicted using two computational algorithms, and 6 epitopes from each gene product with the highest predicted likelihood of binding to HLA-A2 were evaluated empirically using a flow-based T2 assay, as described (Vonderheide et al., 1999, Immunity 10:673-679). […]

[2] = system: T2 cells loaded with cognate peptide; experiment: lysis of peptide-loaded T2 cells by peptide-specific CTL; assay type: cell-based, human; settings: not negative control viral peptide
Method: The following assay is adapted from Fischer et al. (2002, J. Immunol. Methods 259:159-169). Briefly, T2 cells are labeled as follows. T2 cells are plated at 1×10^6/mL in serum-free RPMI-1640×1 mL in 24 well plate. 2.5 ug/mL B2M is added to the cells. 1 ug/mL peptide (Tax or Flu) is added to the mixture. The cells are incubate overnight at 37° C. in a CO2 incubator. The cells are then washed once in RPMI-1640 (serum free). The supernatant is removed; leaving about 25 ul supernatant on the pellet. The remaining cells in suspension are agitated to mix with the supernatant. 1 mL of diluent C is added to resuspend the cells.
Immediately prior to staining, 4×10)(−6)M PKH26 dye is prepared at RT (1:250 dilution of stock; 4 ul of 996 ul diluent C). 1 mL of PKH26 dye is immediately added to 1 mL of cells. The sample is immediatedly mixed by gentle pipetting. The sample is incubate at RT for about 2-5 minutes, with periodical swirling of the tube to insure mixing. The staining reaction is stopped by adding 2 mL of serum in a compatible protein solution. This solution is incubated for 1 minute to stop the staining reaction. The sample is then diluted with 4 mL of complete media (T cell media). The cells are washed two to three times with T cell media.
To assay for the T2 cells, targets at 2e5/mL in IMDM 10% huSerum is prepared. Effectors are prepared at 2×10^6/mL and 2×10^5/mL in IMDM 10% huSerum. […]

human HLA-A*0201 = target: T2, human HLA-A*0201 (human); experiment: flow-based T2 assay (HLA-A2 stabilisation on peptide-pulsed T2 cells, anti-HLA-A2-FITC)
T2 construct: HLA-A2 on TAP-deficient T2 cells; Surface stabilisation by peptide was read with anti-HLA-A2-FITC by flow cytometry; also called HLA-A2; A2
Method: Next day, cells are harvested and washed three times in serum-free RPMI. The supernatant is removed and the cells are resuspend in 800 ul of serum free IMDM. The cells are plated (400 ul of cells) to one well of a 48 well plate. The cells are incubate for an additional 6 hours in an incubator at 37° C. The remaining cells are saved and place on ice for immediate analysis. The cells are stained for anti-HLA-A2-FITC and for IgG-FITC. The cells are anaylized on a flow cytometer.
HLA-A2-restricted epitopes derived from HoxA9 and Meis I were predicted using two computational algorithms, and 6 epitopes from each gene product with the highest predicted likelihood of binding to HLA-A2 were evaluated empirically using a flow-based T2 assay, as described (Vonderheide et al., 1999, Immunity 10:673-679). […] The same cells in normal HLA-A2+ donors were undetectable.

Row | Molecule | lysis of HoxA9+ and Meis1+ leukemia cell lines by specific CTL [1] | binding and MHC complex stability (HLA-A2) | lysis of T2 cells loaded with cognate peptide by specific CTL [2] | binding result (human HLA-A*0201)
1 | Mei-AIY: epitope of the antigen Meis1, SEQ ID NO:11 (AIYGHPLFPL; human-derived peptide) | able to lyse | best binding and MHC complex stability | able to lyse T2 cells loaded with cognate peptide | –
2 | Hox-TLD: epitope of the antigen HOX-A9, SEQ ID NO:3 (TLDTHTLSL; human-derived peptide) | able to lyse | best binding and MHC complex stability | able to lyse T2 cells loaded with cognate peptide | –
3 | B1 | – | – | – | binds
4 | B2 | – | – | – | binds
